Measured values: patent US12383545B1, “Treatment of migraine” (priority 2018, dated 2025)

System: participants with episodic migraine
Assay: Study B: phase 3 randomized open-label 52-week long-term safety trial, eDiary efficacy (atogepant arm)
Type: in vivo, human
Settings: for Change from Baseline in Monthly Acute Medication Use Days, LS means - MMRM / Monthly Acute Medication Use Days, Observed Mean: Atogepant 60 mg QD, mITT Population
Description: Study B: A phase 3, multicenter, randomized, open label study was conducted to evaluate the long-term safety and tolerability of oral atogepant for the prevention of migraine in participants with episodic migraine (Study B). The study objective was to evaluate the safety and tolerability of daily treatment with atogepant 60 mg QD when administered over 52 weeks for the prevention of migraine in participants with episodic migraine.
FIG. 12 provides a schematic for the long-term safety study design. The study comprised a 4-week baseline/screening period, followed by a 52-week open-label treatment period, and a 4-week safety follow-up period.
A total of 744 participants from 106 sites were randomized in a ratio of 5:2 to the following treatment groups: atogepant 60 mg QD or oral standard of care (SOC) migraine prevention medication. The latter arm was included to contextualize safety data from the atogepant-treated participants, and efficacy measures were collected from the atogepant arm only. Efficacy measures were evaluated using the modified intent-to-treat (mITT) population and a mixed-effects model for repeated measures and included changes from baseline in monthly migraine days (MDDs), moderate/severe headache days, and acute medication use days, as well as the proportion of responders based on reductions in MMDs.
A total of 739 patients (n=546 atogepant) were included in the safety population.
All Screened Participants include those screened participants that signed informed consent forms. The Intent-to-Treat Population (ITT) includes all of the randomized participants. The safety population includes all participants who received at least one dose of study intervention (atogepant or SOC medication).
Efficacy endpoints for this study included change from baseline in monthly migraine days at each monthly period; change from baseline in monthly headache days at each monthly period; change from baseline in monthly acute medication use days at each monthly period; and ≥50% improvement (reduction) in monthly migraine days at each monthly period.

[1] = Study B, 60 mg QD, Weeks 1-4, mITT
[2] = Study B, 60 mg QD, Weeks 5-8, mITT
[3] = Study B, 60 mg QD, Weeks 9-12, mITT
[4] = Study B, 60 mg QD, Weeks 13-16, mITT
[5] = Study B, 60 mg QD, Weeks 17-20, mITT
[6] = Study B, 60 mg QD, Weeks 21-24, mITT
[7] = Study B, 60 mg QD, Weeks 25-28, mITT
[8] = Study B, 60 mg QD, Weeks 29-32, mITT
[9] = Study B, 60 mg QD, Weeks 33-36, mITT
[10] = Study B, 60 mg QD, Weeks 37-40, mITT
[11] = Study B, 60 mg QD, Weeks 41-44, mITT
[12] = Study B, 60 mg QD, Weeks 45-48, mITT
[13] = Study B, 60 mg QD, Weeks 49-52, mITT
[14] = Study B, 60 mg QD, weeks 49-52, participants who remained in the trial

## C[C@@H]1[C@H](c2c(F)ccc(F)c2F)C[C@H](NC(=O)c2cnc3c(c2)C[C@@]2(C3)C(=O)Nc3ncccc32)C(=O)N1CC(F)(F)F [atogepant]
[1]
  Monthly headache days, change from baseline, LS means (95% CI) - MMRM: -4.00 days
  Monthly headache days, observed mean (SD): 4.40 days
  Monthly migraine days, change from baseline, LS means (95% CI) - MMRM: -3.84 days
  Monthly migraine days, observed mean (SD): 3.47 days
  ≥50% improvement (reduction) in monthly migraine days, responder n/N1 (%): (60.4) %
[2]
  Monthly headache days, change from baseline, LS means (95% CI) - MMRM: -4.40 days
  Monthly headache days, observed mean (SD): 3.97 days
  Monthly migraine days, change from baseline, LS means (95% CI) - MMRM: -4.15 days
  Monthly migraine days, observed mean (SD): 3.13 days
  ≥50% improvement (reduction) in monthly migraine days, responder n/N1 (%): (65.1) %
[3]
  Monthly headache days, change from baseline, LS means (95% CI) - MMRM: -4.80 days
  Monthly headache days, observed mean (SD): 3.51 days
  Monthly migraine days, change from baseline, LS means (95% CI) - MMRM: -4.38 days
  Monthly migraine days, observed mean (SD): 2.85 days
  ≥50% improvement (reduction) in monthly migraine days, responder n/N1 (%): (70.2) %
[4]
  Monthly headache days, change from baseline, LS means (95% CI) - MMRM: -5.12 days
  Monthly headache days, observed mean (SD): 3.19 days
  Monthly migraine days, change from baseline, LS means (95% CI) - MMRM: -4.69 days
  Monthly migraine days, observed mean (SD): 2.52 days
  ≥50% improvement (reduction) in monthly migraine days, responder n/N1 (%): (74.1) %
[5]
  Monthly headache days, change from baseline, LS means (95% CI) - MMRM: -5.35 days
  Monthly headache days, observed mean (SD): 2.84 days
  Monthly migraine days, change from baseline, LS means (95% CI) - MMRM: -4.76 days
  Monthly migraine days, observed mean (SD): 2.33 days
  ≥50% improvement (reduction) in monthly migraine days, responder n/N1 (%): (73.5) %
[6]
  Monthly headache days, change from baseline, LS means (95% CI) - MMRM: -5.30 days
  Monthly headache days, observed mean (SD): 2.87 days
  Monthly migraine days, change from baseline, LS means (95% CI) - MMRM: -4.72 days
  Monthly migraine days, observed mean (SD): 2.37 days
  ≥50% improvement (reduction) in monthly migraine days, responder n/N1 (%): (75.3) %
[7]
  Monthly headache days, change from baseline, LS means (95% CI) - MMRM: -5.42 days
  Monthly migraine days, change from baseline, LS means (95% CI) - MMRM: -4.85 days
  Monthly migraine days, observed mean (SD): 2.20 days
  ≥50% improvement (reduction) in monthly migraine days, responder n/N1 (%): (75.1) %
[8]
  Monthly headache days, change from baseline, LS means (95% CI) - MMRM: -5.41 days
  Monthly headache days, observed mean (SD): 2.52 days
  Monthly migraine days, change from baseline, LS means (95% CI) - MMRM: -4.82 days
  Monthly migraine days, observed mean (SD): 2.12 days
  ≥50% improvement (reduction) in monthly migraine days, responder n/N1 (%): (76.7) %
[9]
  Monthly headache days, change from baseline, LS means (95% CI) - MMRM: -5.62 days
  Monthly headache days, observed mean (SD): 2.47 days
  Monthly migraine days, change from baseline, LS means (95% CI) - MMRM: -4.95 days
  Monthly migraine days, observed mean (SD): 2.06 days
  ≥50% improvement (reduction) in monthly migraine days, responder n/N1 (%): (80.5) %
[10]
  Monthly headache days, change from baseline, LS means (95% CI) - MMRM: -5.69 days
  Monthly headache days, observed mean (SD): 2.45 days
  Monthly migraine days, change from baseline, LS means (95% CI) - MMRM: -4.97 days
  Monthly migraine days, observed mean (SD): 2.08 days
  ≥50% improvement (reduction) in monthly migraine days, responder n/N1 (%): (78.1) %
[11]
  Monthly headache days, change from baseline, LS means (95% CI) - MMRM: -5.66 days
  Monthly headache days, observed mean (SD): 2.45 days
  Monthly migraine days, change from baseline, LS means (95% CI) - MMRM: -4.95 days
  Monthly migraine days, observed mean (SD): 2.09 days
  ≥50% improvement (reduction) in monthly migraine days, responder n/N1 (%): (78.5) %
[12]
  Monthly headache days, change from baseline, LS means (95% CI) - MMRM: -5.90 days
  Monthly headache days, observed mean (SD): 2.23 days
  Monthly migraine days, change from baseline, LS means (95% CI) - MMRM: -5.13 days
  Monthly migraine days, observed mean (SD): 1.91 days
  ≥50% improvement (reduction) in monthly migraine days, responder n/N1 (%): (82.4) %
[13]
  Monthly headache days, change from baseline, LS means (95% CI) - MMRM: -5.99 days
  Monthly headache days, observed mean (SD): 2.13 days
  Monthly migraine days, change from baseline, LS means (95% CI) - MMRM: -5.19 days
  Monthly migraine days, observed mean (SD): 1.84 days
  ≥50% improvement (reduction) in monthly migraine days, responder n/N1 (%): 84.2%
Study B, 60 mg QD, Weeks 49-52, mITT, listed as Atogepant
  ≥50% improvement (reduction) in monthly migraine days, responder n/N1 (%): (84.2) %
[14]
  participants with 100% reduction in MMDs: 48.4%
  participants with ≥75% reduction in MMDs: 69.9%
Study B, 60 mg, month 1, given as reduction
  reduction from baseline in monthly migraine days: approximately 4 days
Weeks 1-4
  Change from Baseline in Monthly Acute Medication Use Days, LS means - MMRM: -4.04 days
  Monthly Acute Medication Use Days, Observed Mean: 2.60 days
Weeks 5-8
  Change from Baseline in Monthly Acute Medication Use Days, LS means - MMRM: -4.11 days
  Monthly Acute Medication Use Days, Observed Mean: 2.49 days
Weeks 9-12
  Change from Baseline in Monthly Acute Medication Use Days, LS means - MMRM: -4.18 days
  Monthly Acute Medication Use Days, Observed Mean: 2.39 days
Weeks 13-16
  Change from Baseline in Monthly Acute Medication Use Days, LS means - MMRM: -4.46 days
  Monthly Acute Medication Use Days, Observed Mean: 2.09 days
Weeks 17-20
  Change from Baseline in Monthly Acute Medication Use Days, LS means - MMRM: -4.56 days
  Monthly Acute Medication Use Days, Observed Mean: 1.92 days
Weeks 21-24
  Change from Baseline in Monthly Acute Medication Use Days, LS means - MMRM: -4.49 days
  Monthly Acute Medication Use Days, Observed Mean: 2.01 days
Weeks 25-28
  Change from Baseline in Monthly Acute Medication Use Days, LS means - MMRM: -4.59 days
  Monthly Acute Medication Use Days, Observed Mean: 1.90 days
Weeks 29-32
  Change from Baseline in Monthly Acute Medication Use Days, LS means - MMRM: -4.54 days
  Monthly Acute Medication Use Days, Observed Mean: 1.84 days
Weeks 33-36
  Change from Baseline in Monthly Acute Medication Use Days, LS means - MMRM: -4.66 days
  Monthly Acute Medication Use Days, Observed Mean: 1.75 days
Weeks 37-40
  Change from Baseline in Monthly Acute Medication Use Days, LS means - MMRM: -4.68 days
  Monthly Acute Medication Use Days, Observed Mean: 1.75 days
Weeks 41-44
  Change from Baseline in Monthly Acute Medication Use Days, LS means - MMRM: -4.71 days
  Monthly Acute Medication Use Days, Observed Mean: 1.69 days
Weeks 45-48
  Change from Baseline in Monthly Acute Medication Use Days, LS means - MMRM: -4.90 days
  Monthly Acute Medication Use Days, Observed Mean: 1.51 days
Weeks 49-52
  Change from Baseline in Monthly Acute Medication Use Days, LS means - MMRM: -4.93 days
  Monthly Acute Medication Use Days, Observed Mean: 1.50 days
